The values that follow come from patent US8889670B2, “Heterocyclic compounds which modulate the CB2 receptor” (Boehringer Ingelheim International GmbH, priority 2009, dated 2014).

The EC50 is the concentration that produces a half-maximal response.

The structures appear in SMILES notation.

T1 sequence (P34972 whole entry): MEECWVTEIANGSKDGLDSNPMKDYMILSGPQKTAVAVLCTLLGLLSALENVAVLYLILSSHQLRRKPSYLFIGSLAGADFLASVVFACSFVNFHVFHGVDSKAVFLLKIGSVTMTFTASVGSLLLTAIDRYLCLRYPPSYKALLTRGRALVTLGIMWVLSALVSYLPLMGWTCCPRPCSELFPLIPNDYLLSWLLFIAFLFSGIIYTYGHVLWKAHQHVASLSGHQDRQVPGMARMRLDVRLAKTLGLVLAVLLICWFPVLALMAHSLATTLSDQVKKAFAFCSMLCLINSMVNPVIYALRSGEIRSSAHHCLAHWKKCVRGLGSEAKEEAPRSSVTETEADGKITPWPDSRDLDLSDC

One assay concerns the target T1, human CB2R (Homo sapiens, UniProt P34972).
T1 construct: host or cells: CHO cells
Briefly: CB2R mediated modulation of cAMP synthesis (forskolin-stimulated cAMP, CHO cells expressing human CB2R). Format: cell-based.
Conditions: not given
The procedure: B. CB2R Mediated Modulation of cAMP Synthesis:
Compounds of the invention were evaluated for their CB2 agonist or inverse agonistic activity in accordance with the following experimental method.
CHO cells expressing human CB2R (Euroscreen) were plated at a density of 5000 cells per well in 384 well plates and incubated overnight at 37° C. After removing the media, the cells were treated with test compounds diluted in stimulation buffer containing 1 mM IBMX, 0.25% BSA and 10 uM Forskolin. The assay was incubated for 30 minutes at 37° C. Cells were lysed and the cAMP concentration was measured using DiscoverX-XS cAMP kit, following the manufacturer's protocol. In this setting, agonists will decrease forskolin induced production of cAMP while inverse agonists will further increase forskolin induced production of cAMP. EC50 of agonists were calculated as follows. The maximal amount of cAMP produced by forskolin compared to the level of cAMP inhibited by 1 uM CP55940 is defined as 100%. […] Data was analyzed using a four-parameter logistic model. (Model 205 of XLfit 4.0).
Take `CC(C)(C)c1cc(NC(=O)[C@@H]2CCCCN2C(=O)C2CCCCCC2)no1`: the EC50 stood at 8.2 nM. `CO[C@H]1CC[C@@H](C(=O)N2CCCC[C@H]2C(=O)Nc2cc(C(C)(C)C)on2)CC1`: the EC50 was 43 nM.

`CC(C)(C)c1cc(NC(=O)C2CCCCN2C(=O)C2CCC(F)(F)CC2)no1` (stereo not drawn) [1-(4,4-Difluoro-cyclohexanecarbonyl)-piperidine-2-carboxylic acid (5-tert-butyl-isoxazol-3-yl)-amide] yielded an EC50 of 11 nM.

With `CC(C)(C)c1cc(NC(=O)C2CCCN(C(=O)C3CCC(F)(F)CC3)C2)no1` (stereo not drawn) [1-(4,4-Difluoro-cyclohexanecarbonyl)-piperidine-3-carboxylic acid (5-tert-butyl-isoxazol-3-yl)-amide], the midpoint of the response, the EC50, lay at 23 nM. In turn, `CC(C)(C)c1cc(NC(=O)C2CCCN(S(=O)(=O)c3ccc(Cl)cc3)C2)no1` (stereo not drawn) [1-(4-Chloro-benzenesulfonyl)-piperidine-3-carboxylic acid (5-tert-butyl-isoxazol-3-yl)-amide] yielded an EC50 of 12 nM. Consider `CC(C)(C)c1cc(NC(=O)C2CCCN(Cc3ccc(Cl)cc3)C2)no1` (stereo not drawn) [1-(4-Chloro-benzyl)-piperidine-3-carboxylic acid (5-tert-butyl-isoxazol-3-yl)-amide], for which the concentration for a half-maximal effect (EC50) was found to be 2.7 nM. On to `CC(C)(C)c1cc(NC(=O)C2CCCN(C(=O)c3ccc(C(F)(F)F)cc3)C2)no1` (stereo not drawn) [1-(4-Trifluoromethyl-benzoyl)-piperidine-3-carboxylic acid (5-tert-butyl-isoxazol-3-yl)-amide], for which the EC50 is 16 nM. For `CC(C)(C)c1cc(NC(=O)C2CCCN(c3ncc(C(F)(F)F)cc3Cl)C2)no1` (stereo not drawn) [3′-Chloro-5′-trifluoromethyl-3,4,5,6-tetrahydro-2H-[1,2′]bipyridinyl-3-carboxylic acid (5-tert-butyl-isoxazol-3-yl)-amide], the EC50 worked out at 113 nM. In turn, `CC(C)(C)c1cc(NC(=O)C2COCCN2S(=O)(=O)c2ccc(Cl)cc2)no1` (stereo not drawn) [4-(4-Chloro-benzenesulfonyl)-morpholine-3-carboxylic acid (5-tert-butyl-isoxazol-3-yl)-amide] gave an EC50 of 34 nM.

Take `CC(C)(C)c1cc(NC(=O)C2CN(C(=O)c3ccc(C(F)(F)F)cc3)CCO2)no1` (stereo not drawn) [4-(4-Trifluoromethyl-benzoyl)-morpholine-2-carboxylic acid (5-tert-butyl-isoxazol-3-yl)-amide]: the response was half-maximal at 85 nM (EC50). `CC(C)(C)c1cc(NC(=O)[C@@H]2C[C@@H](O)CCN2c2ncc(C(F)(F)F)cc2Cl)no1` [(2S,4S)-3′-Chloro-4-hydroxy-5′-trifluoromethyl-3,4,5,6-tetrahydro-2H-[1,2′]bipyridinyl-2-carboxylic acid (5-tert-butyl-isoxazol-3-yl)-amide] gave an EC50 of 0.3 nM.

As to `CC(C)(C)c1cc(NC(=O)[C@H]2CCCCN2C(=O)C2CCC(F)(F)CC2)no1` [(R)-1-(4,4-Difluoro-cyclohexanecarbonyl)-piperidine-2-carboxylic acid (5-tert-butyl-isoxazol-3-yl)-amide], the midpoint of the response, the EC50, lay at 64 nM. `CC(C)(C)c1cc(NC(=O)[C@@H]2CCCN(C(=O)C3CCC(F)(F)CC3)C2)no1` [(R)-1-(4,4-Difluoro-cyclohexanecarbonyl)-piperidine-3-carboxylic acid (5-tert-butyl-isoxazol-3-yl)-amide] registered a concentration for a half-maximal effect (EC50) of 42 nM. The compound `CC(C)(C)c1cc(NC(=O)[C@@H]2CCCN(c3ncc(C(F)(F)F)cc3Cl)C2)no1` [(R)-3′-Chloro-5′-trifluoromethyl-3,4,5,6-tetrahydro-2H-[1,2′]bipyridinyl-3-carboxylic acid (5-tert-butyl-isoxazol-3-yl)-amide] came in with an EC50 of 54 nM. Turning to `CC(C)(C)c1cc(NC(=O)[C@@H]2CCCCCN2C(=O)N2CCS(=O)(=O)CC2)no1` [(S)-1-(1,1-Dioxo-1λ^6-thiomorpholine-4-carbonyl)-azepane-2-carboxylic acid (5-tert-butyl-isoxazol-3-yl)-amide], the EC50 came to 15 nM. In turn, `O=C(Nc1cc(C2CCCCC2)no1)[C@@H]1CCCCN1C(=O)N1CCS(=O)(=O)CC1` [(S)-1-(1,1-Dioxo-1λ^6-thiomorpholine-4-carbonyl)-piperidine-2-carboxylic acid (3-cyclohexyl-isoxazol-5-yl)-amide] registered an EC50 of 59 nM. For `O=C(Nc1nc2cc(Cl)ccc2[nH]1)[C@@H]1CCCCN1C(=O)N1CCS(=O)(=O)CC1` [(S)-1-(1,1-Dioxo-1λ^6-thiomorpholine-4-carbonyl)-piperidine-2-carboxylic acid (5-chloro-1H-benzimidazol-2-yl)-amide], a half-maximal response (EC50) required 77 nM. With `O=C(Nc1nc2cc(F)ccc2s1)[C@@H]1CCCCN1C(=O)N1CCS(=O)(=O)CC1` [(S)-1-(1,1-Dioxo-1λ^6-thiomorpholine-4-carbonyl)-piperidine-2-carboxylic acid (5-fluoro-benzothiazol-2-yl)-amide], the concentration for a half-maximal effect (EC50) amounted to 56 nM.

`O=C(Nc1nc(-c2ccc(F)cc2F)cs1)[C@@H]1CCCCN1C(=O)N1CCS(=O)(=O)CC1` [(S)-1-(1,1-Dioxo-1λ^6-thiomorpholine-4-carbonyl)-piperidine-2-carboxylic acid [4-(2,4-difluoro-phenyl)-thiazol-2-yl]-amide]: a half-maximal effect (EC50) was put at 22 nM. On the same count and under the same terms, then `O=C(Nc1nc(-c2ccc(Cl)cc2)cs1)[C@@H]1CCCCN1C(=O)N1CCS(=O)(=O)CC1` [(S)-1-(1,1-Dioxo-1λ^6-thiomorpholine-4-carbonyl)-piperidine-2-carboxylic acid [4-(4-chloro-phenyl)-thiazol-2-yl]-amide], with 9.9 nM.

The same assay, now with this note: agonist EC50, inhibition of forskolin-stimulated cAMP synthesis; CHO cells expressing human CB2R; mean; read-out: CB2 CAMP @ EC50 nM (mean).
As to `CC(C)(C)c1cc(NC(=O)C2CCCN(C(=O)N3CCS(=O)(=O)CC3)C2)no1` (stereo not drawn) [1-(1,1-Dioxo-1λ6-thiomorpholine-4-carbonyl)-piperidine-3-carboxylic acid (5-tert-butyl-isoxazol-3-yl)-amide], the EC50 was determined as 215 nM.

Take `CC(C)(C)c1cc(NC(=O)C2CCCCN2C(=O)c2ccc(C(F)(F)F)cc2)no1` (stereo not drawn) [1-(4-Trifluoromethyl-benzoyl)-piperidine-2-carboxylic acid (5-tert-butyl-isoxazol-3-yl)-amide]: the concentration giving a half-maximal response (EC50) was determined as 395 nM. For the compound `CC(C)(C)c1cc(NC(=O)C2CCCN(C(=O)C3CCOCC3)C2)no1` (stereo not drawn) [1-(Tetrahydro-pyran-4-carbonyl)-piperidine-3-carboxylic acid (5-tert-butyl-isoxazol-3-yl)-amide], the 50% effective concentration (EC50) stood at 205 nM.

Take `CCn1nc(NC(=O)[C@@H]2CCCCN2C(=O)N2CCS(=O)(=O)CC2)nc1-c1ccccc1` [(S)-1-(1,1-Dioxo-1λ^6-thiomorpholine-4-carbonyl)-piperidine-2-carboxylic acid (1-ethyl-5-phenyl-1H-1,2,4-triazol-3-yl)-amide]: the 50% effective concentration (EC50) stood at 135 nM. Take `CCC(C)c1cc(NC(=O)[C@@H]2CCCCN2C(=O)N2CCS(=O)(=O)CC2)on1` (stereo partly drawn) [(S)-1-(1,1-Dioxo-1λ^6-thiomorpholine-4-carbonyl)-piperidine-2-carboxylic acid (3-sec-butyl-isoxazol-5-yl)-amide]: the EC50 worked out at 105 nM. Turning to `O=C(Nc1nc2c(F)cccc2s1)[C@@H]1CCCCN1C(=O)N1CCS(=O)(=O)CC1` [(S)-1-(1,1-Dioxo-1λ^6-thiomorpholine-4-carbonyl)-piperidine-2-carboxylic acid (4-fluoro-benzothiazol-2-yl)-amide], the EC50 turned out to be 59 nM. Consider `O=C(Nc1nc2cc(F)c(F)cc2s1)[C@@H]1CCCCN1C(=O)N1CCS(=O)(=O)CC1` [(S)-1-(1,1-Dioxo-1λ^6-thiomorpholine-4-carbonyl)-piperidine-2-carboxylic acid (5,6-difluoro-benzothiazol-2-yl)-amide], for which the EC50 stood at 448 nM.

For the compound `CCc1sc(NC(=O)[C@@H]2CCCCN2C(=O)N2CCS(=O)(=O)CC2)nc1-c1ccccc1` [(S)-1-(1,1-Dioxo-1λ^6-thiomorpholine-4-carbonyl)-piperidine-2-carboxylic acid (5-ethyl-4-phenyl-thiazol-2-yl)-amide], the EC50 turned out to be 5.2 nM.

With `CC(C)(C)c1nnc(NC(=O)[C@@H]2CCCCN2C(=O)N2CCS(=O)(=O)CC2)s1` [(S)-1-(1,1-Dioxo-1λ^6-thiomorpholine-4-carbonyl)-piperidine-2-carboxylic acid (5-tert-butyl-1,3,4-thiadiazol-2-yl)-amide], the EC50 was 53 nM. `O=C(NCCSCc1c(F)cccc1Cl)[C@@H]1CCCCN1C(=O)N1CCS(=O)(=O)CC1` [(S)-1-(1,1-Dioxo-1λ^6-thiomorpholine-4-carbonyl)-piperidine-2-carboxylic acid [2-(2-chloro-6-fluoro-benzylsulfanyl)-ethyl]-amide]: the EC50 was 130 nM. Still for that read-out and setting: as for `O=C(Nc1nc(-c2ccc(F)cc2)ns1)[C@@H]1CCCCN1C(=O)N1CCS(=O)(=O)CC1` [(S)-1-(1,1-Dioxo-1λ^6-thiomorpholine-4-carbonyl)-piperidine-2-carboxylic acid [3-(4-fluoro-phenyl)-[1,2,4]thiadiazol-5-yl]-amide], the figure is 22 nM. On the same count and under the same terms, then `COc1ccc(-c2nsc(NC(=O)[C@@H]3CCCCN3C(=O)N3CCS(=O)(=O)CC3)n2)cc1` [(S)-1-(1,1-Dioxo-1λ^6-thiomorpholine-4-carbonyl)-piperidine-2-carboxylic acid [3-(4-methoxy-phenyl)-[1,2,4]thiadiazol-5-yl]-amide], with 20 nM. Take `O=C(Nc1nc(-c2ccc(F)c(F)c2)cs1)[C@@H]1CCCCN1C(=O)N1CCS(=O)(=O)CC1` [(S)-1-(1,1-Dioxo-1λ^6-thiomorpholine-4-carbonyl)-piperidine-2-carboxylic acid [4-(3,4-difluoro-phenyl)-thiazol-2-yl]-amide]: the EC50 was determined as 26 nM.
